Measured values: patent US20220142164A1, “HERBICIDAL COMPOUNDS” (SYNGENTA CROP PROTECTION AG, priority 2019, published 2022)

Columns and labels:
Assay in all cases: Post-emergence efficacy, glasshouse pot test
Format in all cases: in vivo
Settings in all cases: 312 h, post-emergence spray, Application Rate 500 g/Ha, evaluated after 13 days, 100=total damage to plant, 0=no damage to plant
[1] = test system: Chenopodium album (CHEAL)
Protocol: (§1) Seeds of a variety of test species were sown in standard soil in pots. After cultivation for 14 days (post-emergence) under controlled conditions in a glasshouse (at 24/16° C., day/night; 14 hours light; 65% humidity), the plants were sprayed with an aqueous spray solution derived from the dissolution of the technical active ingredient formula (I) in a small amount of acetone and a special solvent and emulsifier mixture referred to as IF50 (11.12% Emulsogen EL360 TM+44.44% N-methylpyrrolidone+44.44% Dowanol DPM glycol ether), to create a 50 g/I solution which was then diluted to required concentration using 0.25% or 1% Empicol ESC70 (Sodium lauryl ether sulphate)+1% ammonium sulphate as diluent. The test plants were then grown in a glasshouse under controlled conditions (at 24/16° C., day/night; 14 hours light; 65% humidity) and watered twice daily. After 13 days the test was evaluated (100=total damage to plant; 0=no damage to plant). Ipomoea hederacea (IPOHE), Euphorbia heterophylla (EPHHL), Chenopodium album (CHEAL), Amaranthus palmeri (AMAPA), Lolium perenne (LOLPE), Digitaria sanguinalis (DIGSA), Eleusine indica (ELEIN), Echinochloa crus-galli (ECHCG), Setaria faberi (SETFA)

[2] = test system: Euphorbia heterophylla (EPHHL)
Protocol: as §1

Setaria faberi (SETFA) = test system: Setaria faberi (SETFA)
Protocol: as §1

Eleusine indica (ELEIN) = test system: Eleusine indica (ELEIN)
Protocol: as §1

[3] = test system: Amaranthus palmeri (AMAPA)
Protocol: as §1

Lolium perenne (LOLPE) = test system: Lolium perenne (LOLPE)
Protocol: as §1

[4] = test system: Echinochloa crus-galli (ECHCG)
Protocol: as §1

[5] = test system: Ipomoea hederacea (IPOHE)
Protocol: as §1

[6] = test system: Digitaria sanguinalis (DIGSA)
Protocol: as §1

SMILES	pest or weed control at 500 g/ha [1]	pest or weed control at 500 g/ha [2]	pest or weed control at 500 g/ha (Setaria faberi (SETFA))	pest or weed control at 500 g/ha (Eleusine indica (ELEIN))	pest or weed control at 500 g/ha [3]	pest or weed control at 500 g/ha (Lolium perenne (LOLPE))	pest or weed control at 500 g/ha [4]	pest or weed control at 500 g/ha [5]	pest or weed control at 500 g/ha [6]
O=C(CC[n+]1ccc(-c2ncns2)cc1)NCS(=O)(=O)[O-] [Compound A14, [3-[4-(1,2,4-thiadiazol-5-yl)pyridin-1-ium-1-yl]propanoylamino]methanesulfonate]	90%	20%	70%	60%	100%	10%	70%	30%	100%
O=C(C[n+]1ccc(-c2ncns2)cc1)NCCS(=O)(=O)[O-] [Compound A9, 2-[[2-[4-(1,2,4-thiadiazol-5-yl)pyridin-1-ium-1-yl]acetyl]amino]ethanesulfonate]	70%	90%	60%	50%	90%	30%	30%	60%	30%
O=C(C[n+]1ccc(-c2ncns2)cc1)NC1(C(=O)O)CC1 [Compound A16]	90%	90%	100%	40%	100%	50%	90%	50%	80%
O=C(O)CCNC(=O)C[n+]1ccc(-c2ncns2)cc1 [Compound A4, 3-[[2-[4-(1,2,4-thiadiazol-5-yl)pyridin-1-ium-1-yl]acetyl]amino]propanoic Acid Chloride]	90%	90%	70%	100%	90%	90%	70%	90%	100%
COC(=O)CNC(=O)C[n+]1ccc(-c2ncns2)cc1 [Compound A5, methyl 2-[[2-[4-(1,2,4-thiadiazol-5-yl)pyridin-1-ium-1-yl]acetyl]amino]acetate bromide]	90%	80%	60%	100%	90%	30%	90%	80%	100%
O=C(O)CCSC[n+]1ccc(-c2ncns2)cc1 [Compound A15, 3-[[4-(1,2,4-thiadiazol-5-yl)pyridin-1-ium-1-yl]methylsulfanyl]propanoic acid chloride]	90%	40%	100%	90%	100%	50%	100%	40%	100%
COC(=O)CN(C)C(=O)C[n+]1ccc(-c2ncns2)cc1 [Compound A1]	10%	10%	0%	10%	0%	10%	0%	10%	0%
CN(CCS(=O)(=O)[O-])C(=O)C[n+]1ccc(-c2ncns2)cc1 [Compound A10]	20%	80%	50%	40%	90%	20%	30%	50%	40%
CC(NC(=O)C[n+]1ccc(-c2ncns2)cc1)C(=O)O (stereo not drawn) [Compound A7]	90%	100%	100%	100%	100%	80%	100%	100%	100%
CC(C)(NC(=O)C[n+]1ccc(-c2ncns2)cc1)C(=O)O [Compound A17]	50%	70%	80%	60%	100%	30%	60%	40%	80%
COC(=O)CCNC(=O)C[n+]1ccc(-c2ncns2)cc1 [Compound A2, methyl 3-[[-2-[4-(1,2,4-thiadiazol-5-yl)pyridin-1-ium-1-yl]acetyl]amino]propanoate bromide]	90%	40%	50%	30%	80%	10%	20%	50%	40%
O=C(O)CS(=O)(=O)C[n+]1ccc(-c2ncns2)cc1 [Compound A19]	50%	30%	20%	30%	40%	20%	30%	10%	30%
COC(=O)C(C)NC(=O)C[n+]1ccc(-c2ncns2)cc1 (stereo not drawn) [Compound A8]	90%	100%	100%	100%	100%	60%	100%	100%	100%
O=C(O)CNC(=O)CC[n+]1ccc(-c2ncns2)cc1 [Compound A13]	30%	60%	80%	70%	100%	40%	50%	20%	70%
CN(CC(=O)O)C(=O)C[n+]1ccc(-c2ncns2)cc1 [Compound A6]	90%	90%	40%	20%	100%	40%	60%	40%	90%
O=C(O)CCS(=O)(=O)C[n+]1ccc(-c2ncns2)cc1 [Compound A18, 3-[[4-(1,2,4-thiadiazol-5-yl)pyridin-1-ium-1-yl]methylsulfonyl]propanoic acid 2,2,2-trifluoroacetate]	90%	60%	100%	100%	100%	40%	90%	70%	100%
O=C(O)CNC(=O)C[n+]1ccc(-c2ncns2)cc1 [Compound A3, 2-[[2-[4-(1,2,4-thiadiazol-5-yl)pyridin-1-ium-1-yl]acetyl]amino]acetic acid chloride]	90%	100%	100%	100%	90%	70%	100%	100%	100%
